Here are results for seven compounds from publication PMC7036909, “Discovery of Selective SIRT2 Inhibitors as Therapeutic Agents in B-Cell Lymphoma and Other Malignancies” (Molecules, 2020).

Like-named read-outs stand apart in the source and are kept apart here.

Series [1] concerns OCI-Ly8-LAM-53 (OCI, DLBCL) cells. The series can be described thus: Cell viability (CellTiter-Glo), OCI. Format: cell-based. The note with it: 72 h, cellular ATP; read-out: OCI LC50. The method, then:
(§1) With selective SIRT2 inhibitors in hand, we proceeded to evaluate cytotoxicity of our compounds in Daudi, Raji (Burkitt lymphoma) and OCI-Ly8-LAM-53 (OCI, a representative of several Diffuse Large B-Cell Lymphoma lines; DLBCL) cell lines. Briefly, cells were plated in 96-well plates and treated with inhibitors at desired concentrations for 72 h. Cellular viability was determined by measuring the amount of cellular ATP using CellTiter-Glo assay kit (Promega) and normalized against DMSO-treated controls. […] Selected inhibitors were further evaluated in an expanded panel of cancer cell lines including breast cancer (MCF-7 and MDA-MB231), prostate cancer (PC-3) and glioblastoma multiforme (U-251). […] However, the trend in potency as a function of the structure is consistent with the results obtained against lymphoma cell lines. […] . Cell lines were obtained from ATCC (Manassas, VA, USA) and were grown under standard conditions as recommended. For viability assays, 3000 cells per well were dispensed into 96-well plates and treated with test compounds (final DMSO concentration 0.25%). Cells were incubated with test compounds (or DMSO controls) for 72 h or 5 days as noted at 37 °C in 5% CO2 and viability was determined using the CellTiter-Glo Assay (Promega Corp.) according to manufacturer’s instructions.

In series [2] the target is T1, SIRT1 (Homo sapiens, UniProt Q96EB6).
T1 sequence (Q96EB6 1-747): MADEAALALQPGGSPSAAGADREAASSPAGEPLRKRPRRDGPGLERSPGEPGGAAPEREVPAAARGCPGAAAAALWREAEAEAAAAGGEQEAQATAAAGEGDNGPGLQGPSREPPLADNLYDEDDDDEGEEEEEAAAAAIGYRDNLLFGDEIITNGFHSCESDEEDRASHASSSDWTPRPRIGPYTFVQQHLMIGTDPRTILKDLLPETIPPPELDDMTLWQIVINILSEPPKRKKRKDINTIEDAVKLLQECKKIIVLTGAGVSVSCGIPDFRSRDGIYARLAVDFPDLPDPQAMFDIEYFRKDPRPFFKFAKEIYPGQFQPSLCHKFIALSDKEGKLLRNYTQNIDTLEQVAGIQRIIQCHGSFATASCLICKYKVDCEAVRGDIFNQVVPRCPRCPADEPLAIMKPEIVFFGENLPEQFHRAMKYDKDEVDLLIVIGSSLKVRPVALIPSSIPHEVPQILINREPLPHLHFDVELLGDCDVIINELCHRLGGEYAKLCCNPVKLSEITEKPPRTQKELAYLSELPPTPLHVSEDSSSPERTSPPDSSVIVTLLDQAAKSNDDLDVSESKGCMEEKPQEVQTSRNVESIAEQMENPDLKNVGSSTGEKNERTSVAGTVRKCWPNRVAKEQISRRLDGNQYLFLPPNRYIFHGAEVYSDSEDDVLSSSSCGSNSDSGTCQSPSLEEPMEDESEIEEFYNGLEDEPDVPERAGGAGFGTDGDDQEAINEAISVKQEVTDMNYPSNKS
Further details: purchased Cayman Chemical. The note with it: cited from earlier work.

For series [3], the target named is T2, SIRT2 (Homo sapiens, UniProt Q8IXJ6).
T2 sequence (Q8IXJ6 1-389): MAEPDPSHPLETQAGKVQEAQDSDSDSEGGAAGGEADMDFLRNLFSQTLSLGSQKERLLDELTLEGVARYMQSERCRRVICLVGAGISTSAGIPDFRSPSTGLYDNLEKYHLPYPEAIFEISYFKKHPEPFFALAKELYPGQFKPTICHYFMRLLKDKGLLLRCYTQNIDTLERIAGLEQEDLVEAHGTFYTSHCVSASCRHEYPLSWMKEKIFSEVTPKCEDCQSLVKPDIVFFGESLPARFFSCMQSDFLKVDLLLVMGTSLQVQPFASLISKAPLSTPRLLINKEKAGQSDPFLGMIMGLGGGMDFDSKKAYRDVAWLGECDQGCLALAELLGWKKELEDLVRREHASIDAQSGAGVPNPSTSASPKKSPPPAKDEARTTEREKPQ
Further details: purchased Cayman Chemical. The conditions noted are these: abstract and Figure 1, authors' previous work; cited from earlier work.

Series [4] addresses T3, SIRT3 (Homo sapiens, UniProt Q9NTG7).
T3 sequence (Q9NTG7 1-399): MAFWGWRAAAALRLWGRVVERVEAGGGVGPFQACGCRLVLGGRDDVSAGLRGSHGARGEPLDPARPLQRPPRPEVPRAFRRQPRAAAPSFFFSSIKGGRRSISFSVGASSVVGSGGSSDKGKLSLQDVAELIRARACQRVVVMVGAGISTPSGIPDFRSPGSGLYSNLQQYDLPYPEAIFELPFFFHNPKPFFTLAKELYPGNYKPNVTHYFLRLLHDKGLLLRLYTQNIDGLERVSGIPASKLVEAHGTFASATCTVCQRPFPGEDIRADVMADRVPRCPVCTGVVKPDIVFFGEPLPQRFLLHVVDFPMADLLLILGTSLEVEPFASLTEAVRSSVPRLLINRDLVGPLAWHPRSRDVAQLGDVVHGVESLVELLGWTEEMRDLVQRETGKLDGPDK
Further details: purchased Cayman Chemical. The conditions noted are these: Figure 1, authors' previous work; cited from earlier work.

The test system of series [5] is Daudi (Burkitt lymphoma) cells. The series can be described thus: Cell viability (CellTiter-Glo), Daudi. The note with it: Homo sapiens, 72 h, cellular ATP, read-out: Daudi LC50. It is filed as cell-based. The method, then: as §1
Series [6] relates to Raji (Burkitt lymphoma) cells. As to the kind of experiment: Cell viability (CellTiter-Glo), Raji. Format: cell-based. The note with it: Homo sapiens, 72 h, cellular ATP, read-out: Raji LC50. The method, then:
as §1

The subject of series [7] is MCF-7 breast cancer cells. The series can be described thus: Cell viability (CellTiter-Glo), MCF-7. Format: cell-based. The conditions noted are these: Homo sapiens, MCF7; cellular ATP; read-out: MCF7 LC50. The method, then: as §1
In series [8] the test system is MDA-MB231 breast cancer cells. The series can be described thus: Cell viability (CellTiter-Glo), MDA-MB231. Format: cell-based. The note with it: Homo sapiens, MDA-MB-231; cellular ATP; read-out: MDA-MB231 LC50. The method, then:
as §1

The subject of series [9] is PC-3 prostate cancer cells. The series can be described thus: Cell viability (CellTiter-Glo), PC-3. Format: cell-based. The conditions noted are these: cellular ATP; read-out: PC3 LC50. The method, then: as §1
The test system of series [10] is U-251 glioblastoma multiforme cells. As to the kind of experiment: Cell viability (CellTiter-Glo), U-251. Format: cell-based. The note with it: Homo sapiens, cellular ATP, read-out: U251 LC50. The method, then:
as §1

The target in series [11] is T1, SIRT1. The series can be described thus: SIRT-Glo enzyme inhibition assay, SIRT1. The note with it: for inhibition at 50 µM: read-out: SIRT1 percentage inhibition at 50 µM compound, 50 µM compound; for selectivity for SIRT2 over SIRT1: SIRT2 versus SIRT1.
Experimental: (§2) SIRT1, SIRT2, and SIRT3 were purchased from Cayman Chemical. Enzyme inhibition assays were performed in 96-well black plates using the SIRT-Glo Assay (Promega Corp.) according to the manufacturer’s instructions. Compounds were dissolved in 100% DMSO and to make 5- or 10-mM stock solutions. For initial enzyme inhibition tests, 50 µM of inhibitory concentration was used. […] IC50 values were determined in triplicate and reported values are averages of two independent experiments.
The target of series [12] is T2, SIRT2. As to the kind of experiment: SIRT-Glo enzyme inhibition assay, SIRT2. The conditions noted are these: for IC50: SIRT2 IC50; for inhibition at 50 µM: read-out: SIRT2 percentage inhibition at 50 µM compound, 50 µM compound.
Experimental: as §2
Series [13] concerns the target T3, SIRT3. As to the kind of experiment: SIRT-Glo enzyme inhibition assay, SIRT3. The note with it: for inhibition at 50 µM: read-out: SIRT3 percentage inhibition at 50 µM compound, 50 µM compound; for selectivity for SIRT2 over SIRT3: SIRT2 versus SIRT3.
Experimental: as §2
The test system of series [14] is α-tubulin acetylation in NCI-H460 cells. As to the kind of experiment: α-tubulin acetylation by western blot. Format: cell-based. The note with it: NCI-H460, 0, 5 and 10 µM, 18 h, versus vehicle. The method, then:
To ascertain SIRT2 inhibitory activity of our newly synthesized compounds in a cellular context, we examined acetylation level of α-tubulin, a known SIRT2 substrate. Non-small cell lung cancer cell line NCI-H460 was treated with compound 55 at 0, 5, and 10 µM for 18 h. Cells were harvested, lysed and α-tubulin acetylation was analyzed by western blot (Figure 2).
Figure 2 Determination of α-tubulin acetylation in NCI-H460 cells by western blot following 18 h treatment with 55. GAPDH used as loading control.

A further series deals with OCI DLBCL cells. The series can be described thus: Annexin V staining assay.
The test system of series [15] is cleaved PARP in OCI DLBCL cells. The series can be described thus: PARP cleavage by western blot. The note with it: 24 h.
Experimental: OCI DLBCL cells were treated with 56 for 24 h. Cells were lysed and analyzed by western blot assay for cleaved poly-ADP-ribose polymerase (PARP), a well-accepted apoptosis marker [42] (Abcam, Cambridge, UK).

With `N#C/C(=C\c1ccc(-c2cc(Cl)ccc2Cl)o1)C(=O)Nc1cccc2ncccc12` [AGK2, reference compound], the CC50 in series [1] stood at 73.2 µM. Moreover, the half-maximal inhibitory concentration (IC50) on SIRT1 [2] was more than 50 µM.
For `COc1cc2ccccc2c(Cc2c(-c3ccc(C)cc3)[nH][nH]c2=O)c1O` [Compound 2], the IC50 is 37 µM on SIRT1 [2] (abstract and Figure 1, authors' previous work); more than 200 µM at SIRT2 [3]; more than 200 µM at SIRT3 [4].
Turning to `O=C(NCCO)C(Cc1c(O)ccc2cc(Br)ccc12)C(=O)c1ccc(Br)cc1` (stereo not shown) [Compound 48, 2-[(6-Bromo-2-hydroxynaphthalen-1-yl)methyl]-3-(4-bromophenyl)-N-(2-hydroxyethyl)-3-oxopropanamide], the CC50 turned out to be 10.5 µM in series [5]; 10 µM in series [6]; 5 µM in series [1]; 11.8 µM in [7]; 14.7 µM in series [8]; 11.8 µM in series [9]. In addition, the CC50 in series [10] was found to be 15.8 µM. Besides, the inhibition at 50 µM turned out to be 18% on SIRT1 [11], 96% on SIRT2 [12] and 29% at SIRT3 [13]. The same compound returned an IC50 on SIRT2 [12] of 0.52 µM.
As to `O=C(NCCO)C(Cc1c(O)ccc2cc(Br)ccc12)C(=O)c1ccc(C(F)(F)F)cc1` (stereo not shown) [Compound 49], the CC50 in series [5] was 12 µM; in series [6], 16.5 µM; in series [1] it was 13.1 µM; in [7] it was 20.2 µM; in [8], 23.5 µM; in [9], 18.4 µM. In series [10], the CC50 was determined as 15.7 µM. Also, the “selectivity for SIRT2 over SIRT1” value on SIRT1 [11] is more than 400 fold. For the same compound, the inhibition at 50 µM at SIRT1 [11] was 15%; at SIRT2 [12], 99%; at SIRT3 [13], 27%. For the same compound, it took 0.27 µM to reach half-maximal inhibition against SIRT2 [12] (IC50). In addition, the “selectivity for SIRT2 over SIRT3” value on SIRT3 [13] was more than 800 fold.
In the case of `CNC(=O)CCNC(=O)C(Cc1c(O)ccc2cc(Br)ccc12)C(=O)c1ccc(Cl)cc1` (stereo not shown) [Compound 54, 2-[(6-Bromo-2-hydroxynaphthalen-1-yl)methyl]-3-(4-chlorophenyl)-N-[2-(methylcarbamoyl)ethyl]-3-oxo-propanamide], the CC50 in [5] came to 15.8 µM; in series [6] it was 18.5 µM; in series [1], 11.2 µM; in [7], 18 µM; in [8] it was 23.8 µM; in series [9], 16.5 µM. Further, in series [10], the CC50 was 17.3 µM. In addition, the inhibition at 50 µM at SIRT1 [11] is 12%; at SIRT2 [12], 99%; at SIRT3 [13], 6%. Also, half-maximal inhibition at SIRT2 [12] (IC50) required 0.59 µM.
For `CNC(=O)CCNC(=O)C(Cc1c(O)ccc2cc(Br)ccc12)C(=O)c1ccc(C(F)(F)F)cc1` (stereo not shown) [Compound 55, 2-[(6-Bromo-2-hydroxynaphthalen-1-yl)methyl]-N-[2-(methylcarbamoyl)ethyl]-3-oxo-3-[4-(trifluoromethyl)-phenyl]propenamide], the CC50 is 11.9 µM in [5]; 11.9 µM in series [6]; 24.9 µM in series [1]; 21.6 µM in series [7]; 22.8 µM in series [8]; 17.2 µM in series [9]. The CC50 in series [10] stood at 21.1 µM. The α-tubulin acetylation entry in series [14] is listed as “dose-dependent increase in tubulin acetylation”. This compound also yielded an IC50 on SIRT2 [12] of 0.25 µM. The results for the inhibition at 50 µM on SIRT2 [12] and at SIRT3 [13] were 100% and less than 25%, respectively. Besides, the “SIRT3 percentage inhibition at 50 µM compound” value on SIRT3 [13] is on record as 20%.
As for `CNC(=O)C(Cc1c(O)ccc2cc(Br)ccc12)C(=O)c1ccc(Br)cc1` (stereo not shown) [Compound 56, 2-[(6-Bromo-2-hydroxynaphthalen-1-yl)methyl]-3-(4-bromophenyl)-N-methyl-3-oxopropanamide], the CC50 in series [5] came to 7.1 µM. For the same compound, in series [6], the CC50 came to 9.1 µM. Also, in [1], the CC50 was determined as 5.7 µM. For the same compound, in the series on OCI DLBCL cells (10 µM), the “Q1 (necrotic cell death) cell population” value is given as 4.6%, the “Q2 (apoptotic cells) cell population” value was found to be 47.2%, the Q3 cell population was 39.8% and the Q4 cell population was 8.4%. Besides, in the series on OCI DLBCL cells (25 µM), the “Q1 (necrotic cell death) cell population” value came out at 3.8%, the “Q2 (apoptotic cells) cell population” value is given as 75.8%, the Q3 cell population came out at 13.5% and the Q4 cell population worked out at 6.9%. Besides, in series [15], the PARP cleavage entry is recorded as “dose-dependent PARP cleavage”. Moreover, the “selectivity for SIRT2 over SIRT1” value on SIRT1 [11] is more than 400 fold. On SIRT2 [12], the IC50 worked out at 0.78 µM and the inhibition at 50 µM was 95%. On SIRT3 [13], the “SIRT3 percentage inhibition at 50 µM compound” value worked out at 22%, the “selectivity for SIRT2 over SIRT3” value is more than 800 fold and the inhibition at 50 µM is less than 25%.
